Laboratory results as given in patent publication US7846959B2, “Raf modulators and methods of use” (Exelixis, Inc., priority 2004, dated 2010).
Read-outs that look alike come from different tables or passages of the source.

How the values were obtained:
c-Raf = c-Raf (Homo sapiens, UniProt P04049); experiment: Luciferase-coupled chemiluminescence kinase assay (ATP consumption), c-Raf; assay type: biochemical
Procedure, shortened: (§1)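 Raf enzyme ([…]) pre-incubated with compound 30 minutes at room temperature in 20 mM Tris pH 7.5, 10 mM MgCl2, 0.03% TX-100, 1 mM DTT, then reacted with ATP for 3 hrs at ambient temperature. Remaining ATP quantified by luciferase-luciferin chemiluminescence, consumption held at 25-60%; IC50 reported.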

B-Raf = B-Raf (Homo sapiens, UniProt P15056); experiment: Luciferase-coupled chemiluminescence kinase assay (ATP consumption), B-Raf; assay type: biochemical
Chain of B-Raf (P15056 whole entry): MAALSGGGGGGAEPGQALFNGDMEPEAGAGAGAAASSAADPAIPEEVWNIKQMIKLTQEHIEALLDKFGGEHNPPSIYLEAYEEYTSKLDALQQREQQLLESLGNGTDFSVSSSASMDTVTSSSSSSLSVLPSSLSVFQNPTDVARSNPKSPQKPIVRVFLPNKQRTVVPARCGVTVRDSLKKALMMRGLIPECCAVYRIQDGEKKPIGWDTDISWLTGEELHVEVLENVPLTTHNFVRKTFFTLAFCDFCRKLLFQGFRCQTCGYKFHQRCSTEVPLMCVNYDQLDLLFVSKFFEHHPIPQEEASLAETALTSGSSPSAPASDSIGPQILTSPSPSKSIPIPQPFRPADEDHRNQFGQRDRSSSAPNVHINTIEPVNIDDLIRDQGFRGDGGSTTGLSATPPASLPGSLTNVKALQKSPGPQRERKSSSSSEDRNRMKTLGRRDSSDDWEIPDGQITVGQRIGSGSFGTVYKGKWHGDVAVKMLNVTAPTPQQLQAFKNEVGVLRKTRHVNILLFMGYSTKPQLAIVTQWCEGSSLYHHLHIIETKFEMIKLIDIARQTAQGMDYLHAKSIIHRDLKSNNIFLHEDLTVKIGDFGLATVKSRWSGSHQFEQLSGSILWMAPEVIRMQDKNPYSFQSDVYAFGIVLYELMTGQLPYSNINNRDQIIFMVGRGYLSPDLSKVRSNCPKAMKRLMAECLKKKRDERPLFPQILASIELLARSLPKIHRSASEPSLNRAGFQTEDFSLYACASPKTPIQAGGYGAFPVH
Procedure, shortened: as §1

[1] = read-out: cRaf-1 (inhibition indicated as IC50)
[2] = read-out: bRaf (inhibition indicated as IC50)

Chain of c-Raf (P04049 whole entry): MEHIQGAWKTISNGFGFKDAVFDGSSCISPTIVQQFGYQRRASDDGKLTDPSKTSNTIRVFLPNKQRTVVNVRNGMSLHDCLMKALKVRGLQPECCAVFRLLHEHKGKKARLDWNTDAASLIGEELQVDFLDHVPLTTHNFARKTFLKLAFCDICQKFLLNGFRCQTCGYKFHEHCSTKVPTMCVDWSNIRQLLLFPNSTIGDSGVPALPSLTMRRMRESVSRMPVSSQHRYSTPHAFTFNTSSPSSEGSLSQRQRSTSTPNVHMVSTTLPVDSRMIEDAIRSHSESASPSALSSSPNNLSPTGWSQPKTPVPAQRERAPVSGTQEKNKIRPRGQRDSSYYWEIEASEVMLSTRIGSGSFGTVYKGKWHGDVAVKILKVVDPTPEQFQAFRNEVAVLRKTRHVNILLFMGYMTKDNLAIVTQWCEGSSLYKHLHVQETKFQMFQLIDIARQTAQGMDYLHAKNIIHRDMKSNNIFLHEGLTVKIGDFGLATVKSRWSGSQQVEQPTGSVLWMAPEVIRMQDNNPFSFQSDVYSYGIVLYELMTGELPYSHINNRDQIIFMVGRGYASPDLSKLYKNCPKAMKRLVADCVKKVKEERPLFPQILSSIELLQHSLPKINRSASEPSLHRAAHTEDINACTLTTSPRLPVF

Row | SMILES | IC50 (c-Raf; read-out: cRaf-1 IC50) [µM] | IC50 (B-Raf; read-out: bRaf IC50) [µM] | IC50 (c-Raf; [1]) [µM] | IC50 (B-Raf; [2]) [µM]
1 | C#CCCC(=O)Nc1nc2ccc(C3(O)c4ccccc4C(=O)N3Cc3ccccc3)cc2[nH]1 (stereo not drawn) [Entry 253, N-{6-[1-hydroxy-3-oxo-2-(phenylmethyl)-2,3-dihydro-1H-isoindol-1-yl]-1H-benzimidazol-2-yl}pent-4-ynamide] | < 0.1 | < 0.1 |  | 
2 | COC(=O)Nc1nc2ccc(C3(C)c4ccccc4C(=O)N3c3cccc(C(F)(F)F)c3)cc2[nH]1 (stereo not drawn) [Entry 254, methyl (6-{1-methyl-3-oxo-2-[3-(trifluoromethyl)phenyl]-2,3-dihydro-1H-isoindol-1-yl}-1H-benzimidazol-2-yl)carbamate] | < 0.1 | < 0.1 |  | 
3 | COC(=O)Nc1nc2cc(C3(O)c4ccccc4C(=O)N3c3cccc(OC(F)(F)C(F)F)c3)ccc2[nH]1 (stereo not drawn) [Entry 255, methyl [5-(1-hydroxy-3-oxo-2-{3-[(1,1,2,2-tetrafluoroethyl)oxy]phenyl}-2,3-dihydro-1H-isoindol-1-yl)-1H-benzimidazol-2-yl]carbamate] | 1 to 10 | 1 to 10 |  | 
4 | COC(=O)Nc1nc2cc(C3(O)c4ccccc4C(=O)N3c3cccc(C4CCNCC4)c3)ccc2[nH]1 (stereo not drawn) [Entry 256, methyl {5-[1-hydroxy-3-oxo-2-(3-piperidin-4-ylphenyl)-2,3-dihydro-1H-isoindol-1-yl]-1H-benzimidazol-2-yl}carbamate] | 0.1 to 1 | 0.1 to 1 |  | 
5 | C=Cc1cccc(N2C(=O)c3ccccc3C2(O)c2ccc3[nH]c(NC(=O)OC)nc3c2)c1 (stereo not drawn) [Entry 257, methyl {5-[2-(3-ethenylphenyl)-1-hydroxy-3-oxo-2,3-dihydro-1H-isoindol-1-yl]-1H-benzimidazol-2-yl}carbamate] | < 0.1 | < 0.1 |  | 
6 | COC(=O)Nc1nc2cc(C3(O)c4ccccc4C(=O)N3c3cccc(N(C)C)c3)ccc2[nH]1 (stereo not drawn) [Entry 258, methyl (5-{2-[3-(dimethylamino)phenyl]-1-hydroxy-3-oxo-2,3-dihydro-1H-isoindol-1-yl}-1H-benzimidazol-2-yl)carbamate] | < 0.1 | < 0.1 |  | 
7 | O=C(Nc1nc2ccc(C3(O)c4ccccc4C(=O)N3Cc3ccccc3)cc2[nH]1)C1CC1(F)F (stereo not drawn) [Entry 259, 2,2-difluoro-N-{6-[1-hydroxy-3-oxo-2-(phenylmethyl)-2,3-dihydro-1H-isoindol-1-yl]-1H-benzimidazol-2-yl}cyclopropanecarboxamide] | < 0.1 | < 0.1 |  | 
8 | CCNC(=O)Nc1nc2ccc(C3(O)c4ccccc4C(=O)N3c3ccc(F)cc3)cc2[nH]1 (stereo not drawn) [Entry 260, N-ethyl-N′-{6-[2-(4-fluorophenyl)-1-hydroxy-3-oxo-2,3-dihydro-1H-isoindol-1-yl]-1H-benzimidazol-2-yl}urea] | < 0.1 | < 0.1 |  | 
9 | COC(=O)Nc1nc2cc(C3(O)c4ccccc4C(=O)N3c3cccc(N)c3)ccc2[nH]1 (stereo not drawn) [Entry 261, methyl {5-[2-(3-aminophenyl)-1-hydroxy-3-oxo-2,3-dihydro-1H-isoindol-1-yl]-1H-benzimidazol-2-yl}carbamate] | < 0.1 | < 0.1 |  | 
10 | O=C(CCCOCc1ccccc1)Nc1nc2cc(C3(O)c4ccccc4C(=O)N3Cc3ccccc3)ccc2[nH]1 (stereo not drawn) [Entry 262, N-{5-[1-hydroxy-3-oxo-2-(phenylmethyl)-2,3-dihydro-1H-isoindol-1-yl]-1H-benzimidazol-2-yl}-4-[(phenylmethyl)oxy]butanamide] | < 0.1 | < 0.1 |  | 
11 | O=C(CCCN1CCCCC1)Nc1nc2cc(C3(O)c4ccccc4C(=O)N3Cc3ccccc3)ccc2[nH]1 (stereo not drawn) [Entry 263, N-{5-[1-hydroxy-3-oxo-2-(phenylmethyl)-2,3-dihydro-1H-isoindol-1-yl]-1H-benzimidazol-2-yl}-4-piperidin-1-ylbutanamide] | < 0.1 | < 0.1 |  | 
12 | CN1CCN(CCCC(=O)Nc2nc3cc(C4(O)c5ccccc5C(=O)N4Cc4ccccc4)ccc3[nH]2)CC1 (stereo not drawn) [Entry 264, N-{5-[1-hydroxy-3-oxo-2-(phenylmethyl)-2,3-dihydro-1H-isoindol-1-yl]-1H-benzimidazol-2-yl}-4-(4-methylpiperazin-1-yl)butanamide] | < 0.1 | < 0.1 |  | 
13 | CCCC(=O)Nc1nc2ccc(C3(O)c4ccccc4C(=O)N3c3ccc(F)cc3)cc2[nH]1 (stereo not drawn) [Entry 265, N-{6-[2-(4-fluorophenyl)-1-hydroxy-3-oxo-2,3-dihydro-1H-isoindol-1-yl]-1H-benzimidazol-2-yl}butanamide] | < 0.1 | < 0.1 |  | 
14 | COC(=O)Nc1nc2ccc(C3(O)c4cc(Cl)c(Cl)cc4C(=O)N3c3cccc(Br)c3)cc2[nH]1 (stereo not drawn) [Entry 266, methyl {6-[2-(3-bromophenyl)-5,6-dichloro-1-hydroxy-3-oxo-2,3-dihydro-1H-isoindol-1-yl]-1H-benzimidazol-2-yl}carbamate] | 1 to 10 | 1 to 10 |  | 
15 | COC(=O)Nc1nc2cc(C3(O)c4ccccc4C(=O)N3c3cccc(N(C)c4ccccc4)c3)ccc2[nH]1 (stereo not drawn) [Entry 267, methyl [5-(1-hydroxy-2-{3-[methyl(phenyl)amino]phenyl}-3-oxo-2,3-dihydro-1H-isoindol-1-yl)-1H-benzimidazol-2-yl]carbamate] | < 0.1 | < 0.1 |  | 
16 | COC(=O)Nc1nc2cc(C3(O)c4ccccc4C(=O)N3S(=O)(=O)c3ccccc3)ccc2[nH]1 (stereo not drawn) [Entry 268, methyl {5-[1-hydroxy-3-oxo-2-(phenylsulfonyl)-2,3-dihydro-1H-isoindol-1-yl]-1H-benzimidazol-2-yl}carbamate] |  |  | 1 to 10 | 1 to 10
17 | COC(=O)Nc1nc2cc(C(=O)c3ccccc3NC(=O)Nc3ccccc3)ccc2[nH]1 [Entry 269, methyl {5-[(2-{[(phenylamino)carbonyl]amino}phenyl)carbonyl]-1H-benzimidazol-2-yl}carbamate] |  |  | 0.1 to 1 | 0.1 to 1
18 | COC(=O)Nc1nc2cc(C(=O)c3ccccc3NC(=O)OCc3ccccc3)ccc2[nH]1 [Entry 270, methyl (5-{[2-({[(phenylmethyl)oxy]carbonyl}amino)pheny]carbonyl}-1H-benzimidazol-2-yl)carbamate] |  |  | 1 to 10 | 1 to 10
19 | COC(=O)Nc1nc2cc(C(=O)c3ccccc3C(=O)NNc3ccccc3)ccc2[nH]1 [Entry 271, methyl [5-({2-[(2-phenylhydrazino)carbonyl]phenyl}carbonyl)-1H-benzimidazol-2-yl]carbamate] |  |  | 0.1 to 1 | 0.1 to 1
20 | COC(=O)Nc1nc2cc(C(=O)c3ccccc3C(=O)NOc3ccccc3)ccc2[nH]1 [Entry 272, methyl {5-[(2-{[(phenyloxy)amino]carbonyl}phenyl)carbonyl]-1H-benzimidazol-2-yl}carbamate] |  |  | < 0.1 | < 0.1
21 | CC#CCOC(=O)Nc1nc2cc(C3(O)c4ccccc4C(=O)N3c3ccc(F)cc3)ccc2[nH]1 (stereo not drawn) [Entry 273, but-2-yn-1-yl {5-[2-(4-fluorophenyl)-1-hydroxy-3-oxo-2,3-dihydro-1H-isoindol-1-yl]-1H-benzimidazol-2-yl}carbamate] |  |  | < 0.1 | < 0.1
22 | O=C(CCN1CCCCC1)Nc1nc2cc(C3(O)c4ccccc4C(=O)N3Cc3ccccc3)ccc2[nH]1 (stereo not drawn) [Entry 274, N-{5-[1-hydroxy-3-oxo-2-(phenylmethyl)-2,3-dihydro-1H-isoindol-1-yl]-1H-benzimidazol-2-yl}-3-piperidin-1-ylpropanamide] |  |  | < 0.1 | < 0.1
23 | CCC(=O)Nc1nc2ccc(C3(O)c4ccccc4C(=O)N3c3ccc(F)cc3)cc2[nH]1 (stereo not drawn) [Entry 275, N-{6-[2-(4-fluorophenyl)-1-hydroxy-3-oxo-2,3-dihydro-1H-isoindol-1-yl]-1H-benzimidazol-2-yl}propanamide] |  |  | < 0.1 | < 0.1
24 | C#CCCC(=O)Nc1nc2ccc(C(=O)c3ccccc3C(=O)Nc3ccc(F)cc3)cc2[nH]1 [Entry 276, N-(4-fluorophenyl)-2-{[2-(pent-4-ynoylamino)-1H-benzimidazol-6-yl]carbonyl}benzamide] |  |  | < 0.1 | < 0.1
25 | CCN(CC)CCCC(=O)Nc1nc2cc(C3(O)c4ccccc4C(=O)N3Cc3ccccc3)ccc2[nH]1 (stereo not drawn) [Entry 277, 4-(diethylamino)-N-{5-[1-hydroxy-3-oxo-2-(phenylmethyl)-2,3-dihydro-1H-isoindol-1-yl]-1H-benzimidazol-2-yl}butanamide] |  |  | < 0.1 | < 0.1
26 | O=C(CCCN1CCCC1)Nc1nc2cc(C3(O)c4ccccc4C(=O)N3Cc3ccccc3)ccc2[nH]1 (stereo not drawn) [Entry 278, N-{5-[1-hydroxy-3-oxo-2-(phenylmethyl)-2,3-dihydro-1H-isoindol-1-yl]-1H-benzimidazol-2-yl}-4-pyrrolidin-1-ylbutanamide] |  |  | < 0.1 | < 0.1
27 | O=C(Nc1nc2ccc(C3(O)c4ccccc4C(=O)N3c3ccc(F)cc3)cc2[nH]1)OCCCN1CCCCC1 (stereo not drawn) [Entry 279, 3-piperidin-1-ylpropyl {6-[2-(4-fluorophenyl)-1-hydroxy-3-oxo-2,3-dihydro-1H-isoindol-1-yl]-1H-benzimidazol-2-yl}carbamate] |  |  | < 0.1 | 0.1 to 1
28 | CN1CCN(CCCOC(=O)Nc2nc3ccc(C4(O)c5ccccc5C(=O)N4c4ccc(F)cc4)cc3[nH]2)CC1 (stereo not drawn) [Entry 280, 3-(4-methylpiperazin-1-yl)propyl {6-[2-(4-fluorophenyl)-1-hydroxy-3-oxo-2,3-dihydro-1H-isoindol-1-yl]-1H-benzimidazol-2-yl}carbamate] |  |  | < 0.1 | < 0.1
29 | COC(=O)Nc1nc2cc(C3c4ccccc4C(=O)N3c3cccc(Br)c3)ccc2[nH]1 (stereo not drawn) [Entry 281, methyl {5-[2-(3-bromophenyl)-3-oxo-2,3-dihydro-1H-isoindol-1-yl]-1H-benzimidazol-2-yl}carbamate] |  |  | < 0.1 | < 0.1
30 | C#Cc1cccc(N2C(=O)c3ccccc3C2(O)c2ccc3[nH]c(NC(=O)OC)nc3c2)c1F (stereo not drawn) [Entry 282, methyl {5-[2-(3-ethynyl-2-fluorophenyl)-1-hydroxy-3-oxo-2,3-dihydro-1H-isoindol-1-yl]-1H-benzimidazol-2-yl}carbamate] |  |  | < 0.1 | < 0.1
